The structures appear in SMILES notation.

The assay has as its target GABA-A receptor; anion channel. Description: Inhibition of [35S][…] (TBPS) binding to Gamma-aminobutyric acid receptor. It is filed as protein-complex assay.
Broadly, the IC50 is the midpoint of a concentration-inhibition curve. The low end stands for greater potency, the high end for weaker potency. On to `Cc1nc2sc3c(c2c(N)c1C(=O)OCc1ccccc1)CCC1(C3)OCCO1`, for which the IC50 came to 1.4 µM.

For `CCOC(=O)c1c(C)nc2c(c1N)c1ccccc1n2C`, the half-maximal inhibitory concentration (IC50) stood at 2 µM.

`C#CCOC(=O)c1c(C)nc2sc3c(c2c1N)CCC1(C3)OCCO1`: the concentration for half-maximal inhibition (IC50) amounted to 0.78 µM.

For the compound `Cc1nc2sc3c(c2c(N)c1C(=O)OCc1ccc(Cl)cc1)CCC1(C3)OCCO1`, the half-inhibitory concentration (IC50) turned out to be 0.31 µM.

The compound `Cc1nc2sc3c(c2c2ncn(CCc4ccc(Cl)cc4)c12)CCC1(C3)OCCO1` yielded an IC50 of 2.7 µM.

For the compound `Cc1nc2sc3c(c2c2nn(Cc4ccccc4)c(O)c12)CCC1(C3)OCCO1`, the IC50 was greater than 100 µM.

`C#CCCOC(=O)c1c(C)nc2sc3c(c2c1N)CCC1(C3)OCCO1` registered an IC50 of 0.32 µM.

`CCOC(=O)c1c(C)nc2sc3c(c2c1N)CCC1(C3)OCCO1` had a half-maximal inhibitory concentration (IC50) of 16.4 µM.

With `Cc1[nH]c2sc3c(c2c2ncnc1-2)CCC1(C3)OCCO1`, the concentration for half-maximal inhibition (IC50) is greater than 100 µM.

Regarding `Cc1nc2sc3c(c2c(N)c1C(=O)OCC1CC1)CCC1(C3)OCCO1`, the IC50 amounted to 0.87 µM.

`COC(=O)c1c(C)nc2c(c1N)c1ccccc1n2C` had a half-maximal inhibitory concentration (IC50) of 2 µM.

Compound `Cc1nc2sc3c(c2c2ncn(CC4CC4)c12)CCC1(C3)OCCO1` had an IC50 of 8.9 µM.

The compound `Cc1nc2sc3c(c2c(N)c1C(=O)OCCC1CC1)CCC1(C3)OCCO1` returned an IC50 of 0.24 µM.

`CCCOC(=O)c1c(C)nc2c(c1N)c1ccccc1n2C` yielded a 50% inhibitory concentration (IC50) of 2 µM.

The compound `Cc1nc2sc3c(c2c2ncn(CCC4CC4)c12)CCC1(C3)OCCO1` returned a half-maximal inhibitory concentration (IC50) of 6.3 µM.
